Measurements from the NIST ThermoML archive (doi:10.1016/j.jct.2019.05.002).

Assay: xn = mol fraction of the nth substance listed
Conditions: 100 kPa, Liquid; for speed of sound: Frequency=3 MHz, Single path-length method; for mass density: Vibrating tube method

CC(O)CCO (stereo not given) [1,3-butanediol] + CCCC(=O)OCC
Conditions | mass density [kg/m3] | speed of sound [m/s]
298.15 K, x2 = 0 | 1001.87 | 1527.9
298.15 K, x2 = 0.1034 | 988.68 | 1491.1
298.15 K, x2 = 0.203 | 975.97 | 1455.7
298.15 K, x2 = 0.305 | 962.97 | 1419.4
298.15 K, x2 = 0.3835 | 952.95 | 1391.4
298.15 K, x2 = 0.4936 | 938.91 | 1352.2
298.15 K, x2 = 0.5811 | 927.76 | 1321.1
298.15 K, x2 = 0.6878 | 914.14 | 1283.1
298.15 K, x2 = 0.7997 | 899.87 | 1243.3
298.15 K, x2 = 0.8818 | 889.39 | 1214.1
303.15 K, x2 = 0 | 998.41 | 1514
303.15 K, x2 = 0.1034 | 985.01 | 1476.5
303.15 K, x2 = 0.203 | 972.1 | 1440.3
303.15 K, x2 = 0.305 | 958.89 | 1403.3
303.15 K, x2 = 0.3835 | 948.71 | 1374.8
303.15 K, x2 = 0.4936 | 934.45 | 1334.8
303.15 K, x2 = 0.5811 | 923.12 | 1303.1
303.15 K, x2 = 0.6878 | 909.28 | 1264.3
303.15 K, x2 = 0.7997 | 894.79 | 1223.7
303.15 K, x2 = 0.8818 | 884.14 | 1193.9
308.15 K, x2 = 0 | 994.94 | 1500.1
308.15 K, x2 = 0.1034 | 981.34 | 1461.9
308.15 K, x2 = 0.203 | 968.23 | 1425
308.15 K, x2 = 0.305 | 954.82 | 1387.2
308.15 K, x2 = 0.3835 | 944.49 | 1358.2
308.15 K, x2 = 0.4936 | 930.01 | 1317.4
308.15 K, x2 = 0.5811 | 918.51 | 1285.1
308.15 K, x2 = 0.6878 | 904.47 | 1245.5
308.15 K, x2 = 0.7997 | 889.75 | 1204.1
308.15 K, x2 = 0.8818 | 878.94 | 1173.7
313.15 K, x2 = 0 | 991.49 | 1486.2
313.15 K, x2 = 0.1034 | 977.69 | 1447.2
313.15 K, x2 = 0.203 | 964.38 | 1409.6
313.15 K, x2 = 0.305 | 950.77 | 1371.2
313.15 K, x2 = 0.3835 | 940.28 | 1341.5
313.15 K, x2 = 0.4936 | 925.59 | 1300
313.15 K, x2 = 0.5811 | 913.91 | 1267
313.15 K, x2 = 0.6878 | 899.66 | 1226.8
313.15 K, x2 = 0.7997 | 884.72 | 1184.6
313.15 K, x2 = 0.8818 | 873.76 | 1153.6
318.15 K, x2 = 0 | 988.02 | 1472.3
318.15 K, x2 = 0.1034 | 974.01 | 1432.6
318.15 K, x2 = 0.203 | 960.49 | 1394.3
318.15 K, x2 = 0.305 | 946.68 | 1355.1
318.15 K, x2 = 0.3835 | 936.03 | 1324.9
318.15 K, x2 = 0.4936 | 921.1 | 1282.6
318.15 K, x2 = 0.5811 | 909.25 | 1249
318.15 K, x2 = 0.6878 | 894.78 | 1208
318.15 K, x2 = 0.7997 | 879.61 | 1165
318.15 K, x2 = 0.8818 | 868.48 | 1133.4
323.15 K, x2 = 0 | 984.56 | 1458.4
323.15 K, x2 = 0.1034 | 970.34 | 1417.9
323.15 K, x2 = 0.203 | 956.63 | 1378.9
323.15 K, x2 = 0.305 | 942.62 | 1339
323.15 K, x2 = 0.3835 | 931.81 | 1308.3
323.15 K, x2 = 0.4936 | 916.67 | 1265.2
323.15 K, x2 = 0.5811 | 904.65 | 1231
323.15 K, x2 = 0.6878 | 889.97 | 1189.2
323.15 K, x2 = 0.7997 | 874.58 | 1145.4
323.15 K, x2 = 0.8818 | 863.28 | 1113.3

CCC(O)CO (stereo not given) [1,2-butanediol] + CCCC(=O)OCC
Conditions | mass density [kg/m3] | speed of sound [m/s]
298.15 K, x2 = 0 | 998.56 | 1452.5
298.15 K, x2 = 0.1011 | 986 | 1424.2
298.15 K, x2 = 0.2032 | 973.31 | 1395.5
298.15 K, x2 = 0.3034 | 960.87 | 1367.4
298.15 K, x2 = 0.4004 | 948.81 | 1340.2
298.15 K, x2 = 0.5064 | 935.64 | 1310.5
298.15 K, x2 = 0.6021 | 923.76 | 1283.6
298.15 K, x2 = 0.7043 | 911.06 | 1254.9
298.15 K, x2 = 0.8009 | 899.06 | 1227.9
298.15 K, x2 = 0.9012 | 886.59 | 1199.7
303.15 K, x2 = 0 | 994.75 | 1437.9
303.15 K, x2 = 0.1011 | 982.02 | 1408.9
303.15 K, x2 = 0.2032 | 969.16 | 1379.6
303.15 K, x2 = 0.3034 | 956.55 | 1350.9
303.15 K, x2 = 0.4004 | 944.33 | 1323
303.15 K, x2 = 0.5064 | 930.98 | 1292.6
303.15 K, x2 = 0.6021 | 918.93 | 1265.2
303.15 K, x2 = 0.7043 | 906.06 | 1235.8
303.15 K, x2 = 0.8009 | 893.9 | 1208.1
303.15 K, x2 = 0.9012 | 881.27 | 1179.3
308.15 K, x2 = 0 | 990.92 | 1423.3
308.15 K, x2 = 0.1011 | 978.03 | 1393.7
308.15 K, x2 = 0.2032 | 965.01 | 1363.7
308.15 K, x2 = 0.3034 | 952.23 | 1334.3
308.15 K, x2 = 0.4004 | 939.86 | 1305.9
308.15 K, x2 = 0.5064 | 926.34 | 1274.8
308.15 K, x2 = 0.6021 | 914.14 | 1246.7
308.15 K, x2 = 0.7043 | 901.11 | 1216.7
308.15 K, x2 = 0.8009 | 888.79 | 1188.4
308.15 K, x2 = 0.9012 | 876 | 1159
313.15 K, x2 = 0 | 987.11 | 1408.7
313.15 K, x2 = 0.1011 | 974.05 | 1378.4
313.15 K, x2 = 0.2032 | 960.87 | 1347.8
313.15 K, x2 = 0.3034 | 947.93 | 1317.8
313.15 K, x2 = 0.4004 | 935.41 | 1288.7
313.15 K, x2 = 0.5064 | 921.72 | 1256.9
313.15 K, x2 = 0.6021 | 909.36 | 1228.3
313.15 K, x2 = 0.7043 | 896.16 | 1197.6
313.15 K, x2 = 0.8009 | 883.69 | 1168.7
313.15 K, x2 = 0.9012 | 870.74 | 1138.6
318.15 K, x2 = 0 | 983.28 | 1394.1
318.15 K, x2 = 0.1011 | 970.05 | 1363.2
318.15 K, x2 = 0.2032 | 956.7 | 1331.9
318.15 K, x2 = 0.3034 | 943.59 | 1301.2
318.15 K, x2 = 0.4004 | 930.9 | 1271.5
318.15 K, x2 = 0.5064 | 917.03 | 1239.1
318.15 K, x2 = 0.6021 | 904.51 | 1209.8
318.15 K, x2 = 0.7043 | 891.14 | 1178.5
318.15 K, x2 = 0.8009 | 878.51 | 1148.9
318.15 K, x2 = 0.9012 | 865.39 | 1118.2
323.15 K, x2 = 0 | 979.46 | 1379.5
323.15 K, x2 = 0.1011 | 966.07 | 1347.9
323.15 K, x2 = 0.2032 | 952.55 | 1316
323.15 K, x2 = 0.3034 | 939.28 | 1284.7
323.15 K, x2 = 0.4004 | 926.44 | 1254.4
323.15 K, x2 = 0.5064 | 912.4 | 1221.3
323.15 K, x2 = 0.6021 | 899.72 | 1191.4
323.15 K, x2 = 0.7043 | 886.19 | 1159.4
323.15 K, x2 = 0.8009 | 873.4 | 1129.2
323.15 K, x2 = 0.9012 | 860.11 | 1097.9
